Experimental data reported in patent publication US20230022157A1 (Achillion Pharmaceuticals, Inc., priority 2018, published 2023).
Read-outs that look alike come from different tables or passages of the source.

Biological target: T1, Human Factor D (Homo sapiens, UniProt P00746)
T1 construct: purified from human serum; purchased Complement Technology, Inc; host or cells: human serum (natural protein, not recombinant)
Experiment: Human Factor D Assay
Assay type: biochemical
Details: Human Factor D 80 nM, substrate Z-L-Lys-SBzl, read-out: IC50 (Stars)
Procedure, shortened: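 Serum-purified human factor D (80 nM final) preincubated 5 min at room temperature with test compound in 50 mM Tris, 1M NaCl, pH 7.5. Z-L-Lys-SBzl substrate and DTNB then added, each at 100 μM final. IC50 from nonlinear regression of reaction rate against compound concentration.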

T1 sequence (P00746 26-253): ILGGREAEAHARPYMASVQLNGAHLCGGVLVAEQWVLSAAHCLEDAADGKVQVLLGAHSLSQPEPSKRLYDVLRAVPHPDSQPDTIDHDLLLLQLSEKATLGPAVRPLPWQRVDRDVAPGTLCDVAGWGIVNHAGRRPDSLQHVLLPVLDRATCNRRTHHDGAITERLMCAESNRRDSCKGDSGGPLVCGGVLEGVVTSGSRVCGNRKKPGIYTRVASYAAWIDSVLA

Structure (SMILES) | IC50 (Table 2) [nM] | IC50 (assay of Example 3) [nM]
CC(=O)c1nn(CC(=O)N2[C@H](C(=O)N[C@H](CO)Cc3ccccc3)C[C@@]3(C)C[C@@H]23)c2c(C)cc(-c3cnc(C)nc3)cc12 [Compound 146, (1R,3S,5R)-2-{2-[3-acetyl-7-methyl-5-(2-methylpyrimidin-5-yl)indazol-1-yl]acetyl}-N-[(2S)-1-hydroxy-3-phenylpropan-2-yl]-5-methyl-2-azabicyclo[3.1.0]hexane-3-carboxamide] | < 1000 | –
CC(=O)c1nn(CC(=O)N2[C@H](C(=O)N[C@@H](C)C3CCCCC3)C[C@@]3(C)C[C@@H]23)c2c(C)cc(-c3cnc(C)nc3)cc12 [Compound 72, (1R,3S,5R)-2-(2-(3-Acetyl-7-methyl-5-(2-methylpyrimidin-5-yl)-1H-indazol-1-yl)acetyl)-N—((S)-1-cyclohexylethyl)-5-methyl-2-azabicyclo[3.1.0]hexane-3-carboxamide] | < 1000 | –
CC(=O)c1nn(CC(=O)N2[C@H](C(=O)NCCn3cccn3)C[C@@]3(C)C[C@@H]23)c2c(C)cc(-c3cnc(C)nc3)cc12 [Compound 102, (1R,3S,5R)-2-{2-[3-acetyl-7-methyl-5-(2-methylpyrimidin-5-yl)indazol-1-yl]acetyl}-5-methyl-N-[2-(pyrazol-1-yl)ethyl]-2-azabicyclo[3.1.0]hexane-3-carboxamide] | < 1000 | –
CC(=O)c1nn(CC(=O)N2C[C@H](F)C[C@H]2C(=O)Oc2cccc(Br)n2)c2ccc(-c3cnc(C)nc3)cc12 [Compound 37, (2S,4R)-6-Bromopyridin-2-yl 1-(2-(3-acetyl-5-(2-methylpyrimidin-5-yl)-1H-indazol-1-yl)acetyl)-4-fluoropyrrolidine-2-carboxylate] | – | 1000 to 10000
CC(=O)c1nn(CC(=O)N2[C@H](C(=O)N[C@@H](C(C)(C)C)C(F)(F)F)C[C@@]3(C)C[C@@H]23)c2c(C)cc(-c3cnc(C)nc3)cc12 [Compound 154, (1R,3S,5R)-2-{2-[3-acetyl-7-methyl-5-(2-methylpyrimidin-5-yl)indazol-1-yl]acetyl}-5-methyl-N-[(2S)-1,1,1-trifluoro-3,3-dimethylbutan-2-yl]-2-azabicyclo[3.1.0]hexane-3-carboxamide] | 1000 to 10000 | –
CC(=O)c1nn(CC(=O)N2[C@H](C(=O)N[C@H]3CCCCC34OCCO4)C[C@@]3(C)C[C@@H]23)c2c(C)cc(-c3cnc(C)nc3)cc12 (single isomer, unassigned) [Compound 135] | 1000 to 10000 | –
CC(=O)c1nn(CC(=O)N2[C@H](C(=O)Nc3nc(Br)ccc3C)C[C@@]3(C)C[C@@H]23)c2c(C)cc(-c3cnc(C4(O)CC4)nc3)cc12 [Compound 169] | < 1000 | –
CC(=O)c1nn(CC(=O)N2[C@H]3CC[C@H](C3)[C@H]2C(=O)Nc2nc(C(F)(F)F)ccc2C)c2c(C)cc(-c3cnc4cc(C)nn4c3)cc12 [Compound 223, (1S,3S,4R)-2-(2-(3-acetyl-7-methyl-5-(2-methylpyrazolo[1,5-a]pyrimidin-6-yl)-1H-indazol-1-yl)acetyl)-N-(3-methyl-6-(trifluoromethyl)pyridin-2-yl)-2-azabicyclo[2.2.1]heptane-3-carboxamide] | < 1000 | –

Now from value to molecule:

IC50 (Table 2) [nM] | IC50 (assay of Example 3) [nM] | Structure (SMILES)
< 1000 | – | COC(=O)c1ncc(-c2cc(C)c3c(c2)c(C(C)=O)nn3CC(=O)N2[C@H](C(=O)Nc3nc(C(F)(F)F)ccc3C)C[C@@]3(C)C[C@@H]23)cn1 [Compound 50, Methyl 5-(3-acetyl-7-methyl-1-(2-((1R,3S,5R)-5-methyl-3-((3-methyl-6-(trifluoromethyl)pyridin-2-yl)carbamoyl)-2-azabicyclo[3.1.0]hexan-2-yl)-2-oxoethyl)-1H-indazol-5-yl)pyrimidine-2-carboxylate]
< 1000 | – | CC(=O)c1nn(CC(=O)N2[C@H](C(=O)Nc3nc(C(F)(F)F)ccc3C)C[C@@]3(C)C[C@@H]23)c2c(C)cc(-c3cnc4cc(C)nn4c3)cc12 [Compound 224, (1R,3S,5R)-2-(2-(3-acetyl-7-methyl-5-(2-methylpyrazolo[1,5-a]pyrimidin-6-yl)-1H-indazol-1-yl)acetyl)-5-methyl-N-(3-methyl-6-(trifluoromethyl)pyridin-2-yl)-2-azabicyclo[3.1.0]hexane-3-carboxamide]
< 1000 | – | COc1ncc(-c2cc(C)c3c(c2)c(C(C)=O)nn3CC(=O)N2[C@H](C(=O)Nc3nc(Br)ccc3C)C[C@@]3(C)C[C@@H]23)cn1 [Compound 52, (1R,3S,5R)-2-(2-(3-acetyl-5-(2-methoxypyrimidin-5-yl)-7-methyl-1H-indazol-1-yl)acetyl)-N-(6-bromo-3-methylpyridin-2-yl)-5-methyl-2-azabicyclo[3.1.0]hexane-3-carboxamide]
< 1000 | – | CC(=O)c1nn(CC(=O)N2[C@H](C(=O)NC(C)Cc3ccc(O)cc3)C[C@@]3(C)C[C@@H]23)c2c(C)cc(-c3cnc(C)nc3)cc12 (stereo partly drawn) [Compound 147, (1R,3S,5R)-2-{2-[3-acetyl-7-methyl-5-(2-methylpyrimidin-5-yl)indazol-1-yl]acetyl}-N-[1-(4-hydroxyphenyl)propan-2-yl]-5-methyl-2-azabicyclo[3.1.0]hexane-3-carboxamide]
< 1000 | – | CC(=O)c1nn(CC(=O)N2[C@H](C(=O)Nc3nc(C(F)(F)F)ccc3C)C[C@@]3(C)C[C@@H]23)c2c(CF)cc(-c3cnc(C)nc3)cc12 [Compound 237, (1R,3S,5R)-2-(2-(3-acetyl-7-(fluoromethyl)-5-(2-methylpyrimidin-5-yl)-1H-indazol-1-yl)acetyl)-5-methyl-N-(3-methyl-6-(trifluoromethyl)pyridin-2-yl)-2-azabicyclo[3.1.0]hexane-3-carboxamide]
< 1000 | – | CC(=O)c1nn(CC(=O)N2[C@H](C(=O)Nc3cnc(C)c(Br)n3)C[C@@]3(C)C[C@@H]23)c2c(C)cc(-c3cnc(CO)nc3)cc12 [Compound 94, (1R,3S,5R)-2-(2-(3-acetyl-5-(2-(hydroxymethyl)pyrimidin-5-yl)-7-methyl-1H-indazol-1-yl)acetyl)-N-(6-bromo-5-methylpyrazin-2-yl)-5-methyl-2-azabicyclo[3.1.0]hexane-3-carboxamide]
< 1000 | – | CC(=O)c1nn(CC(=O)N2[C@H]3CC[C@H](C3)[C@H]2C(=O)Nc2nc(C(F)(F)F)ccc2C)c2c(C)cc(-c3cnc(C(C)O)nc3)cc12 (stereo partly drawn) [Compound 171, (1S,3S,4R)-2-(2-(3-acetyl-5-(2-(1-hydroxyethyl)pyrimidin-5-yl)-7-methyl-1H-indazol-1-yl)acetyl)-N-(3-methyl-6-(trifluoromethyl)pyridin-2-yl)-2-azabicyclo[2.2.1]heptane-3-carboxamide]
– | < 1000 | CC(=O)c1nn(CC(=O)N2[C@H](C(=O)Nc3nc(Br)ccc3C)C[C@@]3(C)C[C@@H]23)c2c(C)cc(-c3cnc(CO)nc3)cc12 [Compound 27, (1R,3S,5R)-2-(2-(3-Acetyl-5-(2-(hydroxymethyl)pyrimidin-5-yl)-7-methyl-1H-indazol-1-yl)acetyl)-N-(6-bromo-3-methylpyridin-2-yl)-5-methyl-2-azabicyclo[3.1.0]hexane-3-carboxamide]
< 1000 | – | CC(=O)c1nn(CC(=O)N2C[C@H](F)C[C@H]2C(=O)Nc2cccc(Br)n2)c2c(C)cc(-c3cnc(C(C)O)nc3)cc12 (stereo partly drawn) [Compound 179, (2S,4R)-1-(2-(3-acetyl-5-(2-(1-hydroxyethyl)pyrimidin-5-yl)-7-methyl-1H-indazol-1-yl)acetyl)-N-(6-bromopyridin-2-yl)-4-fluoropyrrolidine-2-carboxamide]
– | < 1000 | CC(=O)c1nn(CC(=O)N2[C@H](C(=O)Nc3nc(Br)ccc3C)C[C@@]3(C)C[C@@H]23)c2c3c(c(-c4cnc(C)nc4)cc12)CCCO3 [Compound 20]
